From ChEMBL document CHEMBL1156145, “1-(2-Aminoethyl)-3-(arylsulfonyl)-1H-pyrrolopyridines are 5-HT(6) receptor ligands” (Bioorg Med Chem Lett, 2009)
pEC50, pIC50, pKi: −log10 of the molar value.

How the values were obtained:
[1] = molecular target: T1, 5-hydroxytryptamine receptor 6 (Homo sapiens, UniProt P50406); test: Agonist activity at human HT6 receptor expressed in human HeLa cells assessed as intracellular cAMP level by radioimmunoassay relative to serotonin; assay type: functional, cell-based
T1 sequence (P50406 whole entry): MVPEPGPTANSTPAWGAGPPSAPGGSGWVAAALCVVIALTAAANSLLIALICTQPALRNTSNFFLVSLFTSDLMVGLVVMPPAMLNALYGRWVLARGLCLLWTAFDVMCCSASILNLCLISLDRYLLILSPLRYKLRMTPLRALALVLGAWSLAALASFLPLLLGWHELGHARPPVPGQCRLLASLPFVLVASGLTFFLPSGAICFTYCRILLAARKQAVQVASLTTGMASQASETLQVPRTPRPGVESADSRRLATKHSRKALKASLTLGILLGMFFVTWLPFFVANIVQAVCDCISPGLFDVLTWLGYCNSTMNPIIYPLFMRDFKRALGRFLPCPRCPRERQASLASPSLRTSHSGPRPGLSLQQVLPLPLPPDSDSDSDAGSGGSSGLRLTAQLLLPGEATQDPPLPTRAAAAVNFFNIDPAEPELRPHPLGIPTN

[2] = molecular target: T1, 5-hydroxytryptamine receptor 6; test: Displacement of [3H]LSD from human HT6 receptor expressed in HeLa cells at 1 uM relative to serotonin; assay type: cell-based
[3] = molecular target: T1, 5-hydroxytryptamine receptor 6; test: Displacement of [3H]LSD from human HT6 receptor expressed in human HeLa cells; assay type: cell-based
[4] = molecular target: T1, 5-hydroxytryptamine receptor 6; test: Antagonistic activity at human HT6 receptor expressed in HeLa cells assessed as intracellular cAMP level by radioimmunoassay relative to serotonin; assay type: functional, cell-based
[5] = molecular target: T1, 5-hydroxytryptamine receptor 6; test: Antagonistic activity at human HT6 receptor expressed in HeLa cells assessed as intracellular cAMP level by radioimmunoassay; assay type: functional, cell-based
[6] = molecular target: T1, 5-hydroxytryptamine receptor 6; test: Agonistic activity at human HT6 receptor expressed in HeLa cells assessed as intracellular cAMP level by radioimmunoassay

Emax [1] [%] | pKi [3] | Structure (SMILES) | further results
100 |  | CN(C)CCn1cc(S(=O)(=O)c2cccc(F)c2)c2cccnc21 | 
 |  | CN(C)CCn1cc(S(=O)(=O)c2ccccc2)c2cnccc21 | Activity [2]: 39%
 | 7.38 | NCCn1cc(S(=O)(=O)c2c(Cl)nc3sccn23)c2ncccc21 | 
 | 6.43 | CN(C)CCn1cc(S(=O)(=O)c2ccccc2)c2ncccc21 | 
 | 7.34 | Cc1cccc(S(=O)(=O)c2cn(CCN)c3cccnc23)c1 | 
 | 7.95 | COc1ccc2c(n1)c(S(=O)(=O)c1cccc(F)c1)cn2CCN(C)C | Emax [4]: 91%; pIC50 [5]: 7.39
51 | 7.12 | NCCn1cc(S(=O)(=O)c2cccc(F)c2)c2ncccc21 | pEC50 [6]: 6.08
 |  | CN(C)CCn1cc(S(=O)(=O)c2ccccc2)c2cc(Cl)ncc21 | Activity [2]: 55%
 | 8.41 | CC(=O)c1ccc2c(n1)c(S(=O)(=O)c1ccc(Br)cc1)cn2CCN(C)C | Imax [4]: 100%; pIC50 [5]: 6.41
56 | 7.46 | NCCn1cc(S(=O)(=O)c2cccc(Cl)c2)c2ncccc21 | pEC50 [6]: 6.71
 | 7.25 | CC(=O)c1ccc2c(n1)c(S(=O)(=O)c1ccccc1)cn2CCN(C)C | 
94 |  | CN(C)CCn1cc(S(=O)(=O)c2ccccc2)c2cccnc21 | 
 | 8.77 | COc1ccc2c(n1)c(S(=O)(=O)c1cccc3ccccc13)cn2CCN(C)C | Emax [4]: 100%; pIC50 [5]: 6.53
